Laboratory results reported in patent publication US20070129359A1, “Tetrahydronaphthalene derivatives, processes for their preparation and their use as antiinflammatory agents” (priority 2005, published 2007).

Tests used:
[1] = target: T1, glucocorticoid receptor (GR) (Homo sapiens, UniProt P04150); experiment: binding to the glucocorticoid receptor (recombinant receptor, Sf9 cytosol); details: cytosol of Sf9 cells, reference [3H]-dexamethasone
T1 construct: made in house; host or cells: Sf9 cells infected with recombinant baculovirus (cytosol preparation)
T1 sequence (P04150 1-777): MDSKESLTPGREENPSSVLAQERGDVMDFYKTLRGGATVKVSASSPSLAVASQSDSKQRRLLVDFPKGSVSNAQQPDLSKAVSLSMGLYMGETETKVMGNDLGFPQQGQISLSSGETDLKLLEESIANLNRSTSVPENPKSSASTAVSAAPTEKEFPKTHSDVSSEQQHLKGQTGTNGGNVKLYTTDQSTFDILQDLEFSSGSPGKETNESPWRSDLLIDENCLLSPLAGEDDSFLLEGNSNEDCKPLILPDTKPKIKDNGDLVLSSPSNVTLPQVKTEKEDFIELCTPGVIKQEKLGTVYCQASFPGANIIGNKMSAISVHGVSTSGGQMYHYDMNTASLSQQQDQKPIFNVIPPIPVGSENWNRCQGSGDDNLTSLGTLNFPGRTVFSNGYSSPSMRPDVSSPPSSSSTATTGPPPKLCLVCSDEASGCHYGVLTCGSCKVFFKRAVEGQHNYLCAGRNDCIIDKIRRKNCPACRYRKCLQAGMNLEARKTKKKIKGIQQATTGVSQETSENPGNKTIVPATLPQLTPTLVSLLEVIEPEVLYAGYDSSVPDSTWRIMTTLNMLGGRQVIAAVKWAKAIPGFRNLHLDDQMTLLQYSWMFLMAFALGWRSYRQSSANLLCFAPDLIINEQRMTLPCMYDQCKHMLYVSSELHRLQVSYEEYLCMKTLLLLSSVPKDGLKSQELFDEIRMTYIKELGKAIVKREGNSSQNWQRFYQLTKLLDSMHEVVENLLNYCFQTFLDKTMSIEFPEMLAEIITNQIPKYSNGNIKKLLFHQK
Text: (§1) The binding of the substances to the glucocorticoid receptor (GR) and further steroid hormone receptors (mineral corticoid receptor (MR), progesterone receptor (PR) and androgen receptor (AR)) is examined with the aid of recombinantly prepared receptors. Cytosol preparations of Sf9 cells which had been infected with recombinant baculoviruses which code for the GR are employed for the binding studies. Compared with the reference substance [^3H]-dexamethasone, the substances show a high affinity for the GR.

[2] = target: T2, progesterone receptor (PR) (Homo sapiens, UniProt P06401); experiment: binding to the progesterone receptor (recombinantly prepared receptor)
T2 construct: made in house
T2 sequence (P06401 1-933): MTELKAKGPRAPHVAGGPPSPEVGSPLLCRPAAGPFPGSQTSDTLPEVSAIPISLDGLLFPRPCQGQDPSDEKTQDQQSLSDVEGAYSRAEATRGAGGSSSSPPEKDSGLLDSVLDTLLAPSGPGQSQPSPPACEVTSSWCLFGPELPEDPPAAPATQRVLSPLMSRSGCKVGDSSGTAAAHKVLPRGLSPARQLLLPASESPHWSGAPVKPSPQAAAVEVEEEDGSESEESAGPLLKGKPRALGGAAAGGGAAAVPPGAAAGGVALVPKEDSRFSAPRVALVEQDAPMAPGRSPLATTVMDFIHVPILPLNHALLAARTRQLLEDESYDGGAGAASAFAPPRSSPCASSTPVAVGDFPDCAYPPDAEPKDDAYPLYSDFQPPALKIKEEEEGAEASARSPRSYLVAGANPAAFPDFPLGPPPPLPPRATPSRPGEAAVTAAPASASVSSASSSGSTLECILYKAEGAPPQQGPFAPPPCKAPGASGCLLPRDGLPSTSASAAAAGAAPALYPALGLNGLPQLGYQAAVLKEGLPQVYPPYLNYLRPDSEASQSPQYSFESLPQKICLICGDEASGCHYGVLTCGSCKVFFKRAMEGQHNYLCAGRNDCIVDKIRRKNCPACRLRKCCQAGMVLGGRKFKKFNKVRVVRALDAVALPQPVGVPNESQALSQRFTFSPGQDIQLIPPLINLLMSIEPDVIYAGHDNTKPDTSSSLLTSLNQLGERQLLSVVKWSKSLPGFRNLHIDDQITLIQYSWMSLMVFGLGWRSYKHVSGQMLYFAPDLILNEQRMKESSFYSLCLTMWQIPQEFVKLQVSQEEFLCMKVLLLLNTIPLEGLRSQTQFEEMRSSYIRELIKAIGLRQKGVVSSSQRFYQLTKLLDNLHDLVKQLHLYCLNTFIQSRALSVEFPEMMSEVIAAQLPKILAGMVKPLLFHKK
Text: as §1

[3] = tested on: IL-8 secretion in the human THP-1 monocyte cell line; experiment: inhibition of LPS-induced IL-8 secretion in THP-1 cells (ELISA); type: cell-based
Method: The compounds of the invention of the general formula (I) inhibit the secretion, induced by lipopolysaccharide (LPS), of the cytokine IL-8 in the human THP-1 monocyte cell line. The concentration of the cytokines was determined in the supernatant using a commercially available ELISA kit.

Q: For `CC1(C)C[C@@](O)(C(F)(F)F)[C@H](NC(=O)c2ccc3occc3c2)c2ccc(F)c(O)c21` (relative stereo) [Example 3L, N-(cis-6-fluoro-2,5-dihydroxy-4,4-dimethyl-2-trifluoro-methyl-1,2,3,4-tetrahydronaphthalen-1-yl)benzofuran-5-carboxamide], which IC50 [1] is on record?
A: Its IC50 is 0.036 µM.

Q: What about the IC50 [2] of the same compound?
A: Its IC50 is greater than 1 µM.

Q: For `COc1c(F)ccc2c1C(C)(C)C[C@@](O)(C(F)(F)F)[C@@H]2NC(=O)Nc1ccc2ccccc2c1` [Example 3E], which IC50 ([3]; LPS, ELISA of supernatant, read-out: IC50(ILB) inhibition of LPS-induced IL-8 secretion) is on record?
A: The IC50 was 1 µM.

Q: What about the “efficiency with regard to [3H]-dexamethasone as standard” value ([3]; LPS-induced IL-8 secretion) of the same compound?
A: Its value is 11%.
